Data taken from publication PMC12332667, “Role of Structural Modifications in Peptidomimetic Compounds as Potential Antimicrobial Agents against Staphylococcus aureus and Streptococcus pyogenes: Balancing Bioavailability, Safety, and Antimicrobial Activity” (ACS Omega, 2025).
In brackets after ≈: the same amount, converted by molar mass.

Legend:
[1] = test system: S. agalactiae ATCC 27956; test: MIC/MBC broth microdilution, S. agalactiae; assay type: cell-based, Streptococcus agalactiae; conditions: S. agalactiae
Method: (§1) S. aureus (ATCC 29213),S. pyogenes (ATCC 19615),Streptococcus agalactiae (ATCC 27956),Escherichia coli (ATCC 25922),Proteus vulgaris (ATCC 6896),K. pneumoniae (ATCC 700603) andP. aeruginosa (ATCC 10145) reference strains, as well asStaphylococcus cohnii, Enterococcus faecalis, Staphylococcus schleiferi, Staphylococcus intermedius and Streptococcus mutans clinical isolates, were used to test the antibacterial activity of the peptidomimetics. Bacteria were aerobically cultured for 18 h at 37 °C in plates with sterilized brain heart infusion (BHI) broth (Sigma-Aldrich, USA) media mixed with bacteriological agar (Sigma-Aldrich, USA) using the streak plate method. After 18 h, BHI broth was inoculated to 0.5 on the McFarland scale and diluted to approximately 10^5 CFU/mL. To achieve a final stock concentration of 1024 μg/mL, the peptidomimetics were dissolved in sterile water, and 5–10% of absolute ethanol or dimethyl sulfoxide (DMSO) was added. The antibacterial activities were determined by using the standard broth microdilution method of the National Committee for Clinical Laboratory Standards. The process involved adding serially diluted peptidomimetics to consecutive wells of a 96-well microtiter plate (Brand, Germany) holding media with microorganisms. The inoculated plates treated with peptides were then placed in an incubator at 37 °C for 18 h. The MIC value was determined as the lowest concentration of peptidomimetic at which there was no obvious growth (equal or more than 90% of the untreated sample). […] The lowest concentration yielding growth in no more than 3 colonies, corresponding to at least a 99.9% kill rate, was taken as MBC. Each biological replicate included control wells with the addition of water, DMSO, and ethanol as respective solvent controls. All experiments were conducted with consistent adherence to growth and sterility controls and were performed at least in technical triplicate with three biological repeats.

[2] = test system: S. schleiferi c.i.; test: MIC/MBC broth microdilution, S. schleiferi; assay type: cell-based, Staphylococcus schleiferi
Method: as §1

[3] = test system: P. vulgaris ATCC 6896; test: MIC/MBC broth microdilution, P. vulgaris; assay type: cell-based, Proteus vulgaris
Method: as §1

[4] = test system: S. mutans c.i.; test: MIC/MBC broth microdilution, S. mutans; assay type: cell-based, Streptococcus mutans
Method: as §1

[5] = test system: K. pneumoniae ATCC 700603; test: MIC/MBC broth microdilution, K. pneumoniae; assay type: cell-based
Method: as §1

[6] = test system: fibroblasts (46BR.1N); test: LDH cytotoxicity test, fibroblasts; assay type: cell-based; conditions: 48 h
Method: (§2) In our study, we used two distinct cell types: immortalized human HaCaT keratinocytes (DKFZ, Heidelberg, Germany) and a human dermal fibroblast cell line (46BR.1N). […] Cultures were maintained in a humidified atmosphere with 5% CO2 at 37 °C in 25 cm^2 culture flasks with the medium replenished every 2 days. The condition of the cells was monitored using optical microscopy.
(§3) Cell death in immortalized human keratinocytes (HaCaT) and fibroblasts (46BR.1N) was measured by quantifying the lactate dehydrogenase (LDH) activity using a commercial kit (Roche, Switzerland). Cells were seeded in 96-well plates at a density of 5000 cells per well in DMEM high glucose medium supplemented with 10% FBS. After 24 h of incubation, the medium was replaced with serum-free medium containing various concentrations of peptidomimetics (50, 100, and 150 μg/mL). After 48 h, supernatants were collected for LDH analysis. Plate readings were taken spectrophotometrically using a 450 nm wavelength. Cell death measurements were normalized to an untreated control (0%), with 1% Triton X-100 detergent used as a positive control to induce maximum LDH release, indicating maximal cytotoxicity. Statistical significance was determined with a Mann–Whitney U test with a statistical significance p ≤ 0.05. Analysis was performed with Statistica software (Krakow, Poland) and graphs were prepared in GraphPad Prism (Boston, USA).

[7] = test system: E. faecalis c.i.; test: MIC/MBC broth microdilution, E. faecalis; assay type: cell-based, Enterococcus faecalis
Method: as §1

[8] = test system: P. aeruginosa ATCC 10145; test: MIC/MBC broth microdilution, P. aeruginosa; assay type: cell-based
Method: as §1

[9] = test system: immortalized human HaCaT keratinocytes; test: XTT cell proliferation assay, keratinocytes; assay type: cell-based
Method: (§4) In our study, we used two distinct cell types: immortalized human HaCaT keratinocytes (DKFZ, Heidelberg, Germany) and a human dermal fibroblast cell line (46BR.1N). […] Cultures were maintained in a humidified atmosphere with 5% CO2 at 37 °C in 25 cm^2 culture flasks with the medium replenished every 2 days. The condition of the cells was monitored using optical microscopy. […] After 24 h of incubation, the medium was replaced with serum-free HG-DMEM containing appropriate concentrations of peptidomimetics. All solutions used in the experiments were prepared with double-distilled water or with the addition of ethanol under sterile conditions to ensure compatibility with the conditions of the bacteriological assay. For 72 h of incubation, half of the medium was replaced with fresh medium after 48 h, and cells were stimulated with peptides for a second time. The XTT cell proliferation assay was then performed according to the manufacturer’s instructions (Roche, Switzerland). Cells were treated with the peptides for either 48 or 72 h, followed by the addition of XTT reagent, and the plates were then incubated at 37 °C in a 5% CO2 environment for 4 h. Plate readings were taken using a standard plate reader at a wavelength of 490 nm (OD = 490 nm). […] Statistical significance was determined with a Mann–Whitney U test with statistical significance p ≤ 0.05. Analysis was performed with Statistica software, and graphs were prepared in GraphPad Prism.

[10] = test system: S. intemrdius c.i.; test: MIC/MBC broth microdilution, S. intermedius; assay type: cell-based, Staphylococcus intermedius
Method: as §1

[11] = test system: human dermal fibroblast cell line (46BR.1N); test: XTT cell proliferation assay, fibroblasts; assay type: cell-based
Method: as §4

[12] = test system: S. aureus ATCC 43300; test: MIC/MBC broth microdilution, S. aureus; assay type: cell-based, Staphylococcus aureus; conditions: for MBC / MIC: S. aureus
[13] = test system: S. cohnii c.i.; test: MIC/MBC broth microdilution, S. cohnii; assay type: cell-based, Staphylococcus cohnii
Method: as §1

[14] = test system: E. coli ATCC 25922; test: MIC/MBC broth microdilution, E. coli; assay type: cell-based, Escherichia coli
Method: as §1

[15] = test system: immortalized human keratinocytes (HaCaT); test: LDH cytotoxicity test, keratinocytes; assay type: cell-based; conditions: 48 h
Method: as §2, §3

[16] = test system: S. pyogenes ATCC 19615; test: MIC/MBC broth microdilution, S. pyogenes; assay type: cell-based, Streptococcus pyogenes; conditions: S. pyogenes
Method: as §1

[17] = XTT, 48 and 72 h, 0.01–150 μg/mL
[18] = up to 150 μg/mL, A-193 and A-179 after 48 h

Compound: CC(C)C[C@H](NC(=O)[C@H](CCCNC(=N)N)NC(=O)OCc1ccccc1)C(=O)N[C@H](CNC(=O)C(=Cc1ccccc1)c1ccccc1)C(C)C [Compound A-164]
- MBC ([1]; H2O): 16 µg/mL (≈ 22.5 µM)
- MIC ([1]; H2O): 8 µg/mL (≈ 11.2 µM)
- MBC ([1]; water additive DMSO): 32 µg/mL (≈ 44.9 µM)
- MIC ([1]; water additive DMSO): 16 µg/mL (≈ 22.5 µM)
- MBC ([1]; water additive EtOH): 8 µg/mL (≈ 11.2 µM)
- MIC ([1]; water additive EtOH): 4 µg/mL (≈ 5.62 µM)
- MBC ([2]; H2O): 16 µg/mL (≈ 22.5 µM)
- MIC ([2]; H2O): 8 µg/mL (≈ 11.2 µM)
- MBC ([2]; water additive DMSO): 32 µg/mL (≈ 44.9 µM)
- MIC ([2]; water additive DMSO): 16 µg/mL (≈ 22.5 µM)
- MBC ([2]; water additive EtOH): 8 µg/mL (≈ 11.2 µM)
- MIC ([2]; water additive EtOH): 4 µg/mL (≈ 5.62 µM)
- MIC ([3]; H2O): > 512 µg/mL
- MIC ([3]; water additive DMSO): > 512 µg/mL
- MIC ([3]; water additive EtOH): > 512 µg/mL
- MIC ([4]; H2O): > 512 µg/mL
- MIC ([4]; water additive DMSO): > 512 µg/mL
- MIC ([4]; water additive EtOH): > 512 µg/mL
- MIC ([5]; H2O): > 512 µg/mL
- MIC ([5]; water additive DMSO): > 512 µg/mL
- MIC ([5]; water additive EtOH): > 512 µg/mL
- cytotoxicity (LDH), in words ([6]; 50-150 μg/mL): cytotoxic effects across all of the tested concentrations
- concentration at which cytotoxic effect starts ([6]; LDH): 50 µg/mL
- MIC ([7]; H2O): 32 µg/mL (≈ 44.9 µM)
- MBC ([7]; water additive DMSO): 32 µg/mL (≈ 44.9 µM)
- MIC ([7]; water additive DMSO): 16 µg/mL (≈ 22.5 µM)
- MIC ([7]; water additive EtOH): 32 µg/mL (≈ 44.9 µM)
- MIC ([8]; H2O): > 512 µg/mL
- MIC ([8]; water additive DMSO): > 512 µg/mL
- MIC ([8]; water additive EtOH): > 512 µg/mL
- proliferation relative to control at 50 μg/mL ([9]; XTT, 50 μg/mL): 50%
- effect on proliferation, in words [9, 17]: negative impact
- antiproliferative effect (decrease vs control) [9, 18]: up to 50%
- MBC ([10]; H2O): 32 µg/mL (≈ 44.9 µM)
- MIC ([10]; H2O): 16 µg/mL (≈ 22.5 µM)
- MBC ([10]; water additive DMSO): 8 µg/mL (≈ 11.2 µM)
- MIC ([10]; water additive DMSO): 4 µg/mL (≈ 5.62 µM)
- MBC ([10]; water additive EtOH): 16 µg/mL (≈ 22.5 µM)
- MIC ([10]; water additive EtOH): 8 µg/mL (≈ 11.2 µM)
- viability ([11]; 48 h, 50, 100 and 150 μg/mL): over 20%
- proliferation relative to control at 50 μg/mL ([11]; XTT, 50 μg/mL): 50%
- effect on proliferation, in words [11, 17]: negative impact
- antiproliferative effect (decrease vs control) [11, 18]: up to 50%
- MBC ([12]; H2O): 16 µg/mL (≈ 22.5 µM)
- MIC ([12]; H2O): 8 µg/mL (≈ 11.2 µM)
- MBC ([12]; water additive DMSO): 16 µg/mL (≈ 22.5 µM)
- MIC ([12]; water additive DMSO): 8 µg/mL (≈ 11.2 µM)
- MBC ([12]; water additive EtOH): 16 µg/mL (≈ 22.5 µM)
- MIC ([12]; water additive EtOH): 8 µg/mL (≈ 11.2 µM)
- MIC value for S. aureus ([12]; additive not stated): 8 µg/mL
- MBC ([13]; water additive DMSO): 32 µg/mL (≈ 44.9 µM)
- MIC ([13]; water additive DMSO): 16 µg/mL (≈ 22.5 µM)
- MIC ([13]; water additive EtOH): 32 µg/mL (≈ 44.9 µM)
- MIC ([14]; H2O): > 512 µg/mL
- MIC ([14]; water additive DMSO): > 512 µg/mL
- MIC ([14]; water additive EtOH): > 512 µg/mL
- cytotoxicity (LDH), in words ([15]; 50-150 μg/mL): cytotoxic effects across all of the tested concentrations
- concentration at which cytotoxic effect starts ([15]; LDH): 50 µg/mL
- MBC ([16]; H2O): 16 µg/mL (≈ 22.5 µM)
- MIC ([16]; H2O): 8 µg/mL (≈ 11.2 µM)
- MBC ([16]; water additive DMSO): 16 µg/mL (≈ 22.5 µM)
- MIC ([16]; water additive DMSO): 8 µg/mL (≈ 11.2 µM)
- MBC ([16]; water additive EtOH): 8 µg/mL (≈ 11.2 µM)
- MIC ([16]; water additive EtOH): 4 µg/mL (≈ 5.62 µM)
